Data published in PubChem BioAssay (NCI).
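48-hour exposure; five concentrations; linearly interpolated endpoints. Here, GI50 denotes the concentration required for 50% inhibition of growth.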

System: P388/ADR leukemia
Test: NCI tumour cell line growth inhibition, 48 h

## Cc1c[nH]c2c1C13CC1CN(C(=O)c1cc4cc(NC(=O)c5cc6ccccc6o5)ccc4[nH]1)C3=CC2=O (stereo unspecified)
  GI50: > 1.17 ng/mL
